How the values were obtained:
[1] = test system: A-375; test: cells; conditions: Homo sapiens
[2] = test system: HCT-116; test: cells; conditions: Homo sapiens
[3] = biological target: RAF proto-oncogene serine/threonine-protein kinase (Homo sapiens, UniProt P04049); test: Inhibition of C-Raf
Sequence of RAF proto-oncogene serine/threonine-protein kinase (P04049 whole entry): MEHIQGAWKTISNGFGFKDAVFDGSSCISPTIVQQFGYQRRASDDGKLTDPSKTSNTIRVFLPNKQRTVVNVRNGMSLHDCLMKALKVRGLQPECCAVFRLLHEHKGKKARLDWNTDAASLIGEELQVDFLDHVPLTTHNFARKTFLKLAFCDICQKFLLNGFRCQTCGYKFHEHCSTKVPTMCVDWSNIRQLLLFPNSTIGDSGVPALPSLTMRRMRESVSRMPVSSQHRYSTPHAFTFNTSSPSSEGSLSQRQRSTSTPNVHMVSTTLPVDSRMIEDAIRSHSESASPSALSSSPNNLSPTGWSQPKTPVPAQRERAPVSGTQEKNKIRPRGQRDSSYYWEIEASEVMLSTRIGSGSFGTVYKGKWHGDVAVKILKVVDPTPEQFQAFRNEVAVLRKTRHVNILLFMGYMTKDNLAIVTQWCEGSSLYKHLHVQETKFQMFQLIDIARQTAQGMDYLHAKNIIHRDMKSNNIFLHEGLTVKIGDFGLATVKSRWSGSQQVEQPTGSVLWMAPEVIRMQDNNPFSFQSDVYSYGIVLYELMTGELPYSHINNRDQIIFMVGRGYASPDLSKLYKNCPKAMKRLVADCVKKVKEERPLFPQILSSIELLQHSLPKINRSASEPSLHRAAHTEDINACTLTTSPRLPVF

| SMILES | IC50 [1] | IC50 [2] | Ki [3] |
| --- | --- | --- | --- |
| Cc1ccc2c(Nc3ccc(Cl)cc3)nccc2c1Nc1ncccc1-c1ncnc2[nH]cnc12 | 310 nM | 720 nM | 0.3 nM |
| OCCn1cc(-c2ccc3c(c2)CC/C3=N\O)c(-c2ccncc2)n1 | < 500 nM | > 20000 nM |  |
| CCCS(=O)(=O)Nc1ccc(F)c(C(=O)c2c[nH]c3ncc(Cl)cc23)c1F [PLX-4720] | 500 nM | 27000 nM |  |
| CN(C)CCOc1ccc(-c2nc(-c3ccncc3)c(-c3ccc4c(c3)CC/C4=N\O)[nH]2)cc1 [SB590885] | 370 nM | 4600 nM |  |
| CNC(=O)c1cc(Oc2ccc(NC(=O)Nc3ccc(Cl)c(C(F)(F)F)c3)cc2)ccn1 [SORAFENIB] | 2400 nM | 2000 nM |  |
